Patent US7122666B2, “Heteroaryl-substituted pyrrole derivatives, their preparation and their therapeutic uses” (Sankyo Company, Limited, priority 1999, dated 2006)
Read-outs that look alike come from different tables or passages of the source.

Experiments:
[1] = test system: TNFα production in human whole blood; assay: Inhibition of the production of TNFα in vitro in human whole blood (Test Examples 1 and 1′); assay type: cell-based; details: 6 hours at 37° C., plasma TNFα by ELISA
Description: (§1) Inhibition of the Production of the Cytokines IL-1β and TNFα in Vitro in Human Whole Blood
(§2) This test was performed according to the method of Hartman, et al. [D. A. Hartman, S. J. Ochalski and R. P. Carlson; The effects of anti-inflammatory and antiallergic drugs on cytokine release after stimulation of human whole blood by lipopolysaccharide and zymosan A: Inflamm. Res., 44, 269 (1995)].
(§3) Peripheral blood samples were collected in the presence of heparin from healthy adult volunteers. 1000 μl of whole blood were added to an Eppendorf tube to which 2 μl of a dimethyl sulfoxide solution of the test compound had been added in advance, after which 10 μl of lipopolysaccharide (E. coli 026: B6 origin, Difco) were added as a stimulant (final concentration of said lipopolysaccharide: 10 μg/ml). This was mixed well and then incubated for 6 hours at 37° C. in the presence of 5% CO2. At the end of the incubation, the mixture was cooled to 4° C. to stop the reaction, followed immediately by centrifuging for 5 minutes at 14,000 rpm to separate and collect the supernatant plasma. The IL-1β and TNFα produced and released into the plasma were measured using a commercially available enzyme immunoassay (ELISA) kit [Cayman (IL-1β) and Genzyme (TNFα)]. The procedure was also repeated in the absence of test compound. The inhibitory effect [IC50 (μM)] on the production of IL-1β and TNFα was determined from the amounts of the cytokines produced in the presence and absence of the test compound.
(§4) Inhibition of the Production of the Cytokines IL-1β and TNFα In Vitro in Human Whole Blood
as §3, with “O26:” for “026:”, “plasma” for “plasma.”, “kits” for “kit”, “determined by the method of least squares” for “determined”

[2] = test system: IL-1β production in human whole blood; assay: Inhibition of the production of IL-1β in vitro in human whole blood (Test Examples 1 and 1′); assay type: cell-based; details: Table 8′, lipopolysaccharide 10 μg/ml, 6 hours at 37° C., plasma IL-1β by ELISA, least squares, read-out: Inhibitory Effect on IL-1β Production (in vitro) IC50
Description: as §1, §2, §3, §4
as §3, with “O26:” for “026:”, “plasma” for “plasma.”, “kits” for “kit”, “determined by the method of least squares” for “determined”

[3] = Table 3, lipopolysaccharide 10 μg/ml, read-out: Inhibitory Effect on TNFα Production [IC50 (μM)]
[4] = Table 7′, lipopolysaccharide 10 μg/ml, least squares, read-out: Inhibitory Effect on TNFα Production (in vitro) IC50

SMILES	IC50 [1, 3]	IC50 [2]	IC50 [1, 4]
Fc1ccc(-c2[nH]cc(C3=CC4CCC(C3)N4)c2-c2ccncc2)cc1 (racemic) [Example 45, (±)-4-(8-Azabicyclo[3.2.1]oct-2-en-3-yl)-2-(4-fluorophenyl)-3-(pyridin-4-yl)-1H-pyrrole]	0.14 µM		
Fc1ccc(-c2[nH]cc(C3=CC4CC5(CCCC5)CN4CC3)c2-c2ccncc2)cc1 (racemic) [Example 47′, (±)-4-[Cyclopentanespiro-2′-(1′,2′,3′,5′,6′,8a′-hexahydroindolizin)-7′-yl]-2-(4-fluorophenyl)-3-(pyridin-4-yl)-1H-pyrrole]		33 nM	0.01 µM
Fc1ccc(-c2[nH]cc(C3=CC4CCCN4CC3)c2-c2ccncc2)cc1 (racemic) [Example 60, (±)-2-(4-Fluorophenyl)-4-(1,2,3,5,6,8a-hexahydroindolizin-7-yl)-3-(pyridin-4-yl)-1H-pyrrole]	0.047 µM		
CCCN1CCC(c2c[nH]c(-c3ccc(F)cc3)c2-c2ccncc2)=CC1C (racemic) [Example 85, (±)-2-(4-Fluorophenyl)-4-(6-methyl-1-propyl-1,2,3,6-tetrahydropyridin-4-yl)-3-(pyridin-4-yl)-1H-pyrrole]	0.44 µM		
CCCN1CC=C(c2c[nH]c(-c3ccc(F)cc3)c2-c2ccncc2)CC1C (racemic) [Example 86, (±)-2-(4-Fluorophenyl)-4-(2-methyl-1-propyl-1,2,3,6-tetrahydropyridin-4-yl)-3-(pyridin-4-yl)-1H-pyrrole]	0.29 µM		
Fc1ccc(-c2[nH]cc(C3=CC4CCCCN4CC3)c2-c2ccncc2)cc1 (racemic) [Example 87, (±)-2-(4-Fluorophenyl)-4-(1,3,4,6,7,9a-hexahydro-2H-quinolizin-8-yl)-3-(pyridin-4-yl)-1H-pyrrole]	0.31 µM		
Fc1ccc(-c2[nH]cc(C3=CC4CCCN4CC3)c2-c2ccncc2)cc1F (racemic) [Example 92, (±)-2-(3,4-Difluorophenyl)-4-(1,2,3,5,6,8a-hexahydroindolizin-7-yl)-3-(pyridin-4-yl)-1H-pyrrole]	0.045 µM		
FC(F)(F)c1cccc(-c2[nH]cc(C3=CC4CCCN4CC3)c2-c2ccncc2)c1 (racemic) [Example 94, (±)-4-(1,2,3,5,6,8a-Hexahydroindolizin-7-yl)-3-(pyridin-4-yl)-2-(3-trifluoromethylphenyl)-1H-pyrrole]	0.031 µM		
Fc1ccc(-c2[nH]c(C3CCNCC3)cc2-c2ccncc2)cc1 [Compound A, reference compound]	1.9 µM		1.9 µM
Fc1ccc(-c2ncn(C3CCNCC3)c2-c2ccncc2)cc1 [Compound B, reference compound]	1.73 µM		1.73 µM
CO[C@@H]1C[C@H]2C=C(c3c[nH]c(-c4ccc(F)cc4)c3-c3ccncc3)CCN2C1 [Example 2′, 2-(4-Fluorophenyl)-4-[(2R,8aS)-2-methoxy-1,2,3,5,6,8a-hexahydroindolizin-7-yl]-3-(pyridin-4-yl)-1H-pyrrole]		31 nM	0.062 µM
O[C@@H]1C[C@H]2C=C(c3c[nH]c(-c4ccc(F)cc4)c3-c3ccncc3)CCN2C1 [Example 4′, 2-(4-Fluorophenyl)-4-[(2R,8aS)-2-hydroxy-1,2,3,5,6,8a-hexahydroindolizin-7-yl]-3-(pyridin-4-yl)-1H-pyrrole]		41 nM	0.054 µM
Fc1ccc(-c2[nH]cc(C3=C[C@@H]4C[C@H](Cl)CN4CC3)c2-c2ccncc2)cc1 [Example 6′, 4-[(2S,8aS)-2-Chloro-1,2,3,5,6,8a-hexahydroindolizin-7-yl]-2-(4-fluorophenyl)-3-(pyridin-4-yl)-1H-pyrrole]			0.027 µM
Fc1ccc(-c2[nH]cc(C3=C[C@@H]4CC5(CN4CC3)OCCO5)c2-c2ccncc2)cc1 [Example 14′, 4-[(8aS)-2,2-Ethylenedioxy-1,2,3,5,6,8a-hexahydroindolizin-7-yl]-2-(4-fluorophenyl)-3-(pyridin-4-yl)-1H-pyrrole]		9.2 nM	0.004 µM
Fc1ccc(-c2[nH]cc(C3=C[C@@H]4CCCN4CC34CC4)c2-c2ccncc2)cc1 [Example 19′, 4-[Cyclopropanespiro-6′-[(8a′S)-1′,2′,3′,5′,6′,8a′-hexahydroindolizin]-7′-yl]-2-(4-fluorophenyl)-3-(pyridin-4-yl)-1H-pyrrole]		8.3 nM	0.044 µM
CO[C@H]1C[C@H]2C=C(c3c[nH]c(-c4ccc(F)cc4)c3-c3ccncc3)CCN2C1 [Example 21′, 2-(4-Fluorophenyl)-4-[(2S,8aS)-2-methoxy-1,2,3,5,6,8a-hexahydroindolizin-7-yl)-3-(pyridin-4-yl)-1H-pyrrole]		18 nM	0.046 µM
C=C1C[C@H]2C=C(c3c[nH]c(-c4ccc(F)cc4)c3-c3ccncc3)CCN2C1 [Example 23′, 2-(4-Fluorophenyl)-4-[(8aS)-2-methylidene-1,2,3,5,6,8a-hexahydroindolizin-7-yl]-3-(pyridin-4-yl)-1H-pyrrole]		3.8 nM	0.0037 µM
CC1(C)C[C@H]2C=C(c3c[nH]c(-c4ccc(F)cc4)c3-c3ccncc3)CCN2C1 [Example 27′]		1.4 nM	0.0038 µM
CS[C@H]1C[C@H]2C=C(c3c[nH]c(-c4ccc(F)cc4)c3-c3ccncc3)CCN2C1 [Example 29′, 2-(4-Fluorophenyl)-4-[(2S,8aS)-2-methylthio-1,2,3,5,6,8a-hexahydroindolizin-7-yl]-3-(pyridin-4-yl)-1H-pyrrole]		1 nM	0.0036 µM
CCCCS[C@H]1C[C@H]2C=C(c3c[nH]c(-c4ccc(F)cc4)c3-c3ccncc3)CCN2C1 [Example 34′, 4-[(2S,8aS)-2-Butylthio-1,2,3,5,6,8a-hexahydroindolizin-7-yl)-2-(4-fluorophenyl)-3-(pyridin-4yl)-1H-pyrrole]		49 nM	0.046 µM
CCS[C@H]1C[C@H]2C=C(c3c[nH]c(-c4ccc(F)cc4)c3-c3ccncc3)CCN2C1 [Example 36′, 4-[(2S,8aS)-2-Ethylthio-1,2,3,5,6,8a-hexahydroindolizin-7-yl]-2-(4-fluorophenyl)-3-(pyridin-4-yl)-1H-pyrrole]		26 nM	0.018 µM
CC=C1C[C@H]2C=C(c3c[nH]c(-c4ccc(F)cc4)c3-c3ccncc3)CCN2C1 [Example 37′, 4-[(8aS)-2-Ethylidene-1,2,3,5,6,8a-hexahydroindolizin-7-yl]-2-(4-fluorophenyl)-3-(pyridin-4-yl)-1H-pyrrole]		58 nM	0.01 µM
Fc1ccc(-c2[nH]cc(C3=CCN(CCc4ccccc4)CC3)c2-c2ccncc2)cc1 [Example 58, 2-(4-Fluorophenyl)-4-(1-phenethyl-1,2,3,6-tetrahydropyridin-4-yl)-3-(pyridin-4-yl)-1H-pyrrole]	0.089 µM		
Fc1ccc(-c2[nH]cc(C3=C[C@@H]4CCCN4CC3)c2-c2ccncc2)cc1 [Example 83, (−)-2-(4-Fluorophenyl)-4-(1,2,3,5,6,8a-hexahydroindolizin-7-yl)-3-(pyridin-4-yl)-1H-pyrrole]	0.026 µM		
